Experiments:
[1] = test system: Phosphorylation of ERK1/2 in A-427 cells; experiment: Phospho-ERK1/2 MSD Assay (A-427 cells); format: cell-based; conditions: Homo sapiens, A-427, 2 h, 2 h treatment, read-out: p-ERK (A427 cells) IC50
Method in brief: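 ERK1/2 phosphorylation measured by Meso Scale whole-cell lysate assay after A-427 cells were exposed to a titration of compound for 2 h at 37 °C.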

[2] = molecular target: His-tagged KRAS G12D protein (Homo sapiens, UniProt P01116, G12D); experiment: KRAS G12D TR-FRET Assay; format: binding
His-tagged KRAS G12D protein, sequence (P01116 1-188 isoform P01116-2 G12D): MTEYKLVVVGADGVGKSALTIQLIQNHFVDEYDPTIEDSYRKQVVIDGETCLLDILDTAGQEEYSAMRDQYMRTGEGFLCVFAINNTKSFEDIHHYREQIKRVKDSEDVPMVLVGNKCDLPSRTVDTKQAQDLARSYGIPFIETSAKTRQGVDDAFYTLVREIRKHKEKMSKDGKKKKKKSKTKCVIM

[3] = molecular target: GDP-bound KRAS protein (aa 1-169), containing both G12D and C118A amino acid substitutions (Homo sapiens, UniProt P01116, C118A/G12D); experiment: KRAS G12D Coupled Nucleotide Exchange Assay; format: biochemical; conditions: 2 h compound pre-incubation
GDP-bound KRAS protein (aa 1-169), containing both G12D and C118A amino acid substitutions, sequence (P01116 1-169 isoform P01116-2 G12D/C118A): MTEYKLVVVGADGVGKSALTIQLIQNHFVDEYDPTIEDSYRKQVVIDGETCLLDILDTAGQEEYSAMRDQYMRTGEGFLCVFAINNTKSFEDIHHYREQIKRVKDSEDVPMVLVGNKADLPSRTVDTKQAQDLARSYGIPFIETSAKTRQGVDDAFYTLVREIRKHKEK
Procedure: Following compound pre-incubation, purified SOS protein (aa 564-1049) and GTP (Roche 10106399001) were added to the assay wells and incubated for an additional 30 min. […] The assay plates were then read on a PerkinElmer EnVision Multilabel Reader, using AlphaScreen® technology, and data were analyzed using a 4-parameter logistic model to calculate IC50 values.

[4] = test system: Phosphorylation of ERK1/2 in AsPC-1 cells; experiment: Phospho-ERK1/2 MSD Assay (AsPC-1 cells); format: cell-based; conditions: Homo sapiens, ASPC1, 2 h, 2 hours treatment, read-out: p-ERK (AsPC-1 cells) IC50
Method in brief: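 Read-out: MSD electrochemiluminescent detection of phosphorylated ERK1/2 in whole-cell lysates, fitted to a 4-parameter logistic curve for IC50. Prior to lysis, AsPC-1 cells (25,000 per well) received a 2 h compound dose-response at 37 °C.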

Row | SMILES | IC50 [1] | IC50 [2] | Avg 2 h Coupled Exchange IC50 [3] | IC50 [4]
1 | Oc1cc(-c2ccc3c(N4C[C@H]5C[C@@H](C4)N5)nc(OC[C@@]45CCCN4C[C@H](F)C5)nc3c2F)c2ccccc2c1 [Example 4, 4-(4-((1R,5S)-3,6-diazabicyclo[3.1. 1]heptan-3-yl)-8-fluoro-2-(((2R,7aS)-2-fluorotetrahydro-1H-pyrrolizin-7a(5H)-yl)methoxy)quinazolin-7-yl)naphthalen-2-ol] | 0.294 µM | 0.005 µM | 0.007 µM | 1.23 µM
2 | Oc1cc(-c2c(F)cc3c(N4C[C@H]5CC[C@@H](C4)N5)nc(OC[C@@]45CCCN4C[C@H](F)C5)nc3c2F)c2c(Cl)cccc2c1 [Example 70, 4-(4-((1R,5S)-3,8-diazabicyclo[3.2. 1]octan-3-yl)-6,8-difluoro-2-(((2R,7aS)-2-fluorotetrahydro-1H-pyrrolizin-7a(5H)-yl)methoxy)quinazolin-7-yl)-5-chloronaphthalen-2-ol] | 0.012 µM | 0.003 µM | 0.007 µM | 0.049 µM
3 | Fc1c(-c2c(Cl)ccc3[nH]ncc23)ccc2c(N3C[C@H]4CC[C@@H](C3)N4)nc(OC[C@@]34CCCN3C[C@H](F)C4)nc12 [Example 196, 4-((1R,5S)-3,8-diazabicyclo[3.2.1]octan-3-yl)-7-(5-chloro-1H-indazol-4-yl)-8-fluoro-2-(((2R,7aS)-2-fluorotetrahydro-1H-pyrrolizin-7a(5H)-yl)methoxy) quinazoline] | 1.36 µM | 0.037 µM | 0.02 µM | 2.31 µM
4 | CCc1c(F)ccc2cc(O)cc(-c3ccc4c(N5[C@@H]6CNC[C@H]5COC6)nc(OC[C@@]56CCCN5C[C@H](F)C6)nc4c3F)c12 [Example 152, 4-(4-((1R,5S)-3-oxa-7,9-diazabicyclo[3.3.1]nonan-9-yl)-8-fluoro-2-(((2R,7aS)-2-fluorotetrahydro-1H-pyrrolizin-7a(5H)-yl)methoxy)quinazolin-7-yl)-5-ethyl-6-fluoronaphthalen-2-ol] | 0.073 µM | 0.005 µM | 0.004 µM | 0.076 µM
5 | Fc1c(-c2cccc3cccc(Cl)c23)ccc2c(N3C[C@H]4CC[C@@H](C3)N4)nc(OC[C@@]34CCCN3C[C@H](F)C4)nc12 [Example 55, 4-((1R,5S)-3,8-diazabicyclo[3.2. 1]octan-3-yl)-7-(8-chloronaphthalen-1-yl)-8-fluoro-2-(((2R,7aS)-2-fluorotetrahydro-1H-pyrrolizin-7a(5H)-yl)methoxy) quinazoline] | 1.15 µM | 0.008 µM | 0.007 µM | 1.66 µM
6 | Oc1cc(-c2c(F)cc3c(N4C[C@@H]5CC[C@H]4CN5)nc(OC[C@@]45CCCN4C[C@H](F)C5)nc3c2F)c2ccccc2c1 [Example 48, 4-(4-((1S,4S)-2,5-diazabicyclo[2.2. 2]octan-2-yl)-6,8-difluoro-2-(((2R,7aS)-2-fluorotetrahydro-1H-pyrrolizin-7a(5H)-yl)methoxy)quinazolin-7-yl)naphthalen-2-ol] | 0.043 µM | 0.004 µM | 0.004 µM | 0.157 µM
7 | C#Cc1cccc2cc(O)cc(-c3ccc4c(N5C[C@H]6CC[C@@H](C5)N6)nc(OC[C@@]56CCCN5C[C@H](F)C6)nc4c3C)c12 [Example 191, 4-(4-((1R,5S)-3,8-diazabicyclo[3.2.1]octan-3-yl)-2-(((2R,7aS)-2-fluorotetrahydro-1H-pyrrolizin-7a(5H)-yl)methoxy)-8-methylquinazolin-7-yl)-5-ethynylnaphthalen-2-ol] | 0.004 µM | 0.003 µM | 0.004 µM | 0.038 µM
8 | Oc1cc(-c2ccc3c(N4C[C@H]5C[C@@H](C4)N5)nc(OCC45CCCN4CC(F)(F)C5)nc3c2F)c2ccccc2c1 (stereo partly drawn) [Example 8, 4-(4-((1R,5S)-3,6-diazabicyclo[3.1. 1]heptan-3-yl)-2-((2,2-difluorotetrahydro-1H-pyrrolizin-7a(5H)-yl)methoxy)-8-fluoroquinazolin-7-yl)naphthalen-2-ol] | 7.88 µM | 0.092 µM | 0.087 µM | 6.94 µM
9 | Cc1cc2[nH]ncc2c(-c2ccc3c(N4C[C@H]5CC[C@@H](C4)N5)nc(OC[C@@]45CCCN4C[C@H](F)C5)nc3c2)c1Cl [Example 39, 4-((1R,5S)-3,8-diazabicyclo[3.2. 1]octan-3-yl)-7-(5-chloro-6-methyl-1H-indazol-4-yl)-2-(((2R,7aS)-2-fluorotetrahydro-1H-pyrrolizin-7a(5H)-yl)methoxy) quinazoline] | 0.569 µM | 0.02 µM | 0.009 µM | 1.89 µM
10 | CCc1cccc2cc(O)cc(-c3ccc4c(N5[C@@H]6CC[C@H]5CNC6)nc(OC[C@@]56CCCN5C[C@H](F)C6)nc4c3C)c12 [Example 160, 4-(4-((1R,5S)-3,8-diazabicyclo[3.2.1]octan-8-yl)-2-(((2R,7aS)-2-fluorotetrahydro-1H-pyrrolizin-7a(5H)-yl)methoxy)-8-methylquinazolin-7-yl)-5-ethylnaphthalen-2-ol] | 0.41 µM | 0.005 µM | 0.006 µM | 0.754 µM
11 | CCc1c(F)ccc2cc(O)cc(-c3c(O)cc4c(N5[C@@H]6CC[C@H]5CNC6)nc(OC[C@@]56CCCN5C[C@H](F)C6)nc4c3F)c12 [Example 200, 4-((1R,5S)-3,8-diazabicyclo[3.2.1]octan-8-yl)-7-(8-ethyl-7-fluoro-3-hydroxynaphthalen-1-yl)-8-fluoro-2-(((2R,7aS)-2-fluorotetrahydro-1H-pyrrolizin-7a(5H)-yl)methoxy) quinazolin-6-ol] | 0.011 µM | 0.004 µM | 0.004 µM | 0.054 µM
12 | CCc1c(F)ccc2cc(O)cc(-c3cc4nc(OC[C@@]56CCCN5C[C@H](F)C6)nc(N5C[C@H]6CC[C@@H](C5)N6)c4cc3F)c12 [Example 83, 4-(4-((1R,5S)-3,8-diazabicyclo[3.2. 1]octan-3-yl)-6-fluoro-2-(((2R,7aS)-2-fluorotetrahydro-1H-pyrrolizin-7a(5H)-yl)methoxy)quinazolin-7-yl)-5-ethyl-6-fluoronaphthalen-2-ol] | 0.028 µM | 0.003 µM | 0.002 µM | 0.077 µM
13 | CCc1c(F)ccc2cc(O)cc(-c3ccc4c(N5C[C@H]6CC[C@@H](C5)N6)cc(OC[C@@]56CCCN5C[C@H](F)C6)nc4c3F)c12 [Example 211, 4-(4-((1R,5S)-3,8-Diazabicyclo[3.2.1]octan-3-yl)-8-fluoro-2-(((2R,7aS)-2-fluorotetrahydro-1H-pyrrolizin-7a(5H)-yl)methoxy)quinolin-7-yl)-5-ethyl-6-fluoronaphthalen-2-ol] | 6.29 µM | 0.018 µM | 0.029 µM | 8.75 µM
14 | Oc1cc(-c2ccc3c(N4[C@@H]5CC[C@H]4CNC5)nc(OC[C@@]45CCCN4C[C@H](F)C5)nc3c2F)c2ncccc2c1 [Example 25, 8-(4-((1R,5S)-3,8-diazabicyclo[3.2. 1]octan-8-yl)-8-fluoro-2-(((2R,7aS)-2-fluorotetrahydro-1H-pyrrolizin-7a(5H)-yl)methoxy)quinazolin-7-yl)quinolin-6-ol] | 5.05 µM | 0.058 µM | 0.017 µM | 14.8 µM

Reference: patent US20250059205A1, “Heterocyclic Compounds and Methods of Use” (AMGEN INC., priority 2021, published 2025)
